These results are taken from BindingDB's records for doi:10.7270/Q2T15221 (Nmmlsc, 2010).

Molecules are shown by their SMILES.

Chain of Ras-related protein Rab-2A (P61105 whole entry): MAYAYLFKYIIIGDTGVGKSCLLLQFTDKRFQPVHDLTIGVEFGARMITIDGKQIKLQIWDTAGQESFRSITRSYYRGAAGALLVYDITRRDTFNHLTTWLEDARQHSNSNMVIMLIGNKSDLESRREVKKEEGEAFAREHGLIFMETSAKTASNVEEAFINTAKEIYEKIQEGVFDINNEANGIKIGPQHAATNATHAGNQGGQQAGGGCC

This assay has as its target Ras-related protein Rab-2A (Canis lupus familiaris, UniProt P61105). Briefly: potency of blocking fluorescent GTP on Rab2A – biochemical, GST-Rab2 beads, Bodipy-FL-GTP, flow cytometry, multiplex, dose response (AID 1337).
Regarding `Cc1cc(C)c(C)c(C(=O)c2ccccc2C(=O)O)c1C` [2-(2,3,5,6-tetramethylbenzoyl)benzoic acid], the EC50 (as a rule, the concentration that produces a half-maximal response) was determined as 6.26 µM.
The value for `Cc1ccccc1NC(=O)C1CCCN1S(=O)(=O)c1cccc2cccnc12` (stereo not drawn) [MLS000119085] was 3.45 µM; that for `CCOc1ccc(/C=C2\SC(N3CCc4ccccc4C3)=NC2=O)cc1` [(5Z)-2-(3,4-dihydro-1H-isoquinolin-2-yl)-5-(4-ethoxybenzylidene)-2-thiazolin-4-one] was 35.9 µM; that for `O=C1C([N+](=O)[O-])=Cc2oc3c(c2C1/C=N/Cc1ccccc1)CCCC3` (stereo not drawn) [(1Z)-3-nitro-1-[[(phenylmethyl)amino]methylidene]-6,7,8,9-tetrahydrodibenzofuran-2-one] was 4.02 µM.
The value for `COc1ccc(C2CC(c3ccccc3)=NN2c2ccc(S(N)(=O)=O)cc2)cc1` (stereo not drawn) [4-[3-(4-methoxyphenyl)-5-phenyl-3,4-dihydropyrazol-2-yl]benzenesulfonamide] was 0.704 µM; that for `O=C(O)/C=C/c1cn(Cc2ccccc2)nc1-c1cccs1` [(E)-3-(1-benzyl-3-thiophen-2-ylpyrazol-4-yl)prop-2-enoic acid] was 3.64 µM.
The value for `N=C(N)NS(=O)(=O)c1ccc(NC(=S)NC(=O)c2ccc3c(c2)OCO3)cc1` [MLS000621545] was 0.738 µM.
As to `CCCN1C(=O)/C(=C/C=C2\N(CC)c3ccccc3C2(C)C)SC1=S` [(5Z)-5-[(2Z)-2-(1-ethyl-3,3-dimethyl-2-indolylidene)ethylidene]-3-propyl-2-sulfanylidene-4-thiazolidinone], the EC50 was determined as 5.42 µM.
The value for `COCCn1c(=S)[nH]c2cc(C(=O)N3CCc4ccccc4C3)ccc2c1=O` [SMR000310652] was 0.851 µM; that for `COc1ccc(-c2cc(C#N)nc(N3CCNCC3)n2)cc1` [6-(4-Methoxy-phenyl)-2-piperazin-1-yl-pyrimidine-4-carbonitrile] was 30.9 µM; that for `O=C(O)c1ccccc1NCCc1ccc(Cl)cc1` [2-[2-(4-chlorophenyl)ethylamino]benzoic acid] was 0.741 µM.
Take `O=C(O)c1ccccc1Sc1ncnc2sc3c(c12)CCC3`: the EC50 worked out at 2.76 µM.
The value for `Cc1nn(Cc2ccccc2)c(Cl)c1C(=O)O` [1-benzyl-5-chloro-3-methyl-pyrazole-4-carboxylic acid] was 4.88 µM; that for `Cc1ccc(C2=NN(S(=O)(=O)c3ccccc3)C(c3ccccc3O)C2)cc1` (stereo not drawn) [2-[2-(benzenesulfonyl)-5-(4-methylphenyl)-3,4-dihydropyrazol-3-yl]phenol] was 1.69 µM; that for `COC(=O)c1c(-n2c(O)c3c(c2O)[C@]2(C(=O)Nc4c(C)cc(C)cc42)N2CCC[C@@H]32)sc(C)c1C` [2-[(3S,3'aR,8'aS,8'bS)-5,7-dimethyl-1',2,3'-trioxo-2'-spiro[1H-indole-3,4'-3a,6,7,8,8a,8b-hexahydropyrrolo[3,4-a]pyrrolizine]yl]-4,5-dimethyl-3-thiophenecarboxylic acid methyl ester] was 1.99 µM.
The value for `CCS(=O)(=O)N1N=C(c2cccc(NS(C)(=O)=O)c2)CC1c1ccc(C)cc1` (stereo not drawn) [MLS000680398] was 2.67 µM; that for `OC(CNCCc1c[nH]c2ccccc12)Cn1c2ccc(Cl)cc2c2cc(Cl)ccc21` (stereo not drawn) [1-(3,6-dichloro-9-carbazolyl)-3-[2-(3H-indol-3-yl)ethylamino]-2-propanol] was 26.3 µM; that for `CC(C)C(NCc1c(Cl)cccc1Cl)C(=O)O` (stereo not drawn) [2-[(2,6-dichlorobenzyl)amino]-3-methyl-butyric acid] was 5.37 µM.
